Marks after values point to notes of the source that are not given here.
Tests used:
[1] = system: superoxide anion generation from phorbol-ester (PMA)-stimulated PMNs; test: Direct superoxide anion scavenging by EPR spectroscopy (DEPMPO spin trap), isolated human neutrophil assay; assay type: cell-based
Procedure: Leukocyte Isolation and Preparation. Human polymorphonuclear leukocytes (PMNs) were isolated from freshly sampled venous blood of a single volunteer by Percoll density gradient centrifugation as described previously. Briefly, each 10 mL of whole blood was mixed with 0.8 mL of 0.1 M EDTA and 25 mL of saline. The diluted blood was then layered over 9 mL of Percoll at a specific density of 1.080 g/mL. After centrifugation at 400×g for 20 min at 20° C., the plasma, mononuclear cell, and Percoll layers were removed. Erythrocytes were subsequently lysed by addition of 18 mL of ice-cold water for 30 s, followed by 2 mL of 10×PIPES buffer (25 mM PIPES, 110 mM NaCl, and 5 mM KCl, titrated to pH 7.4 with NaOH). Cells were then pelleted at 4° C., the supernatant was decanted, and the procedure was repeated. After the second hypotonic cell lysis, cells were washed twice with PAG buffer [PIPES buffer containing 0.003% human serum albumin (HSA) and 0.1% glucose]. Afterward, PMNs were counted by light microscopy on a hemocytometer. The isolation yielded PMNs with a purity of >95%. The final pellet was then suspended in PAG-CM buffer (PAG buffer with 1 mM CaCl2 and 1 mM MgCl2).
EPR Measurements. All EPR measurements were performed using a Bruker ER 300 EPR spectrometer operating at X-band with a TM110 cavity as previously described. The microwave frequency was measured with a Model 575 microwave counter (EIP Microwave, Inc., San Jose, Calif.). To measure superoxide anion ? generation from phorbol-ester (PMA)-stimulated PMNs, EPR spin-trapping studies were performed using the spin trap DEPMPO (Oxis, Portland, Oreg.) at 10 mM. 1×10^6 PMNs were stimulated with PMA (1 ng/mL) and loaded into capillary tubes for EPR measurements. To determine the radical scavenging ability of 3 and 9 in aqueous and ethanolic formulations, PMNs were pre-incubated for 5 minutes with test compound, followed by PMA stimulation.
Instrument settings used in the spin-trapping experiments were as follows: modulation amplitude, 0.32 G; time constant, 0.16 s; scan time, 60 s; modulation frequency, 100 kHz; microwave power, 20 milliwatts; and microwave frequency, 9.76 GHz. The samples were placed in a quartz EPR flat cell, and spectra were recorded. The component signals in the spectra were identified and quantified as reported previously.

[2] = Lipid peroxide levels in DLPC multilamellar vesicles, C/P 0.2 (triiodide assay); assay type: biochemical; conditions: for Lipid Peroxide Levels: mean ± S.D.
Procedure: The levels of lipid peroxide formation were measured photometrically at specific time points. […] Samples were prepared in a glass test tube as described in the table above. […] Sample tubes were vortexed for 3 min to form MLVs. This assay is based on the principle of the oxidative capacity of lipid peroxides to convert […], which can be measured photometrically at […] (El-Saadani et al., 1989). […] Samples were placed in a water bath set at 37° C. Samples remained in the water bath throughout the experiment except for the temporary removal for time point extractions. • 2. […] • 3. After combining sample time point aliquots with CHOD active reagent and the diffraction buffer as described in the table above, test samples were incubated about 6 hours in darkness at ambient temperature. • 4. The absorbance ([…] nm) of the samples was measured using a spectrophotometer. • 5. […] This value was determined by adding known concentrations of I2 to the CHOD reagent. A stoichiometric relationship (slope=1.02) was observed between the amount of organic peroxides assayed and the concentration of I3^- produced.

[3] = Peroxidation study in DLPC multilamellar vesicles, C/P 0.6; assay type: biochemical; conditions: C/P 0.6, carotenoid 10 μM, 48 hour
Procedure: 1. Samples were prepared in a glass test tube as described in the table above. This gives a cholesterol/DLPC mole ratio of 0.6 and a final concentration of 10 μM for the carotenoids. Equal volumes of vehicle (20 μl chloroform) were added to control samples. 2. All samples were dried down under a steady stream of nitrogen gas while vortexing. 3. Samples were placed in a vacuum desiccator for 2 hours to remove residual solvent and protected from light. 4. Multi-lamellar vesicles (MLVs) were prepared by the method developed by Bangham and Standish (1965). After samples were removed from the vacuum desiccator, they were immediately resuspended in 1 ml of diffraction buffer warmed to room temperature and vortexed for 3 minutes to form MLVs.
This assay is based on the principle of the oxidative capacity of lipid peroxides to convert I2 to I3^− (triiodide), which can be measured photometrically at 365 nm (el-Saadani et al., 1989). This assay is sensitive to peroxide concentrations as low as 10 μM.
1. Samples were placed in a water bath set at 37° C. throughout the experiment. 2. Aliquots of a sample (20 μl) were extracted at a 48 hour time point as described in the table below.
3. After combining the samples with CHOD active reagent and the diffraction buffer, test samples were incubated for about 6 hours in darkness at ambient temperature. 4. The absorbance of a sample was measured photometrically at 365 nm.
Concentrations of lipid peroxides were calculated by the use of the molar absorptivity of I3^− measured at 365 nm (ε=2.46±0.25×10^4M^−1 cm^−1). This value was determined by adding known concentrations of […] to the CHOD reagent. A stoichiometric relationship (slope=1.02) was observed between the amount of organic peroxides assayed and the concentration of I3^− produced.

[4] = F2-isoprostane formation from DAPC lipid vesicles by GC/NCI-MS; assay type: biochemical
Procedure: F2-Isoprostanes are derived principally from the formation of positioned peroxyl radical isomers of arachidonic acid, endocyclization to protaglandin G2-like structures, and reduction to PGF2-like compounds. Total levels of F2-isoprostanes, in DAPC lipid vesicles prepared in the presence of vehicle or drug, were measured by GC-MS with negative chemical ionization as described by Walter et al., 2000. Peroxidation of lipids occurred over time in the absence of any exogenous initiators at 37° C. F2-Isoprostane formation was also measured independently using mass spectroscopy in a blinded study at the Antioxidant Research Laboratory, Tufts University, Boston, Mass.

[5] = Oxygen Radical Absorption Capacity (ORAC) of human plasma; assay type: biochemical; conditions: 10.0 μM (highest concentration tested); vehicle 28.1±1.2
Procedure: The comparative effect of COX-2 selective agents on the antioxidant capacity of human plasma was assessed using the Oxygen Radical Absorption Capacity (ORAC) assay. This assay was carried out according to the method of Huang et al., 2002 with fresh plasma using a microplate fluorescence reader in 96 well format with the excitation and emission filters set at 485 and 530 nm respectively.

[6] = cited from earlier work
human LDL = test: MDA formation (TBARS) in isolated human LDL; assay type: biochemical; conditions: for MDA level in LDL samples: 1 μM, vehicle 3.23±0.28 μM
Procedure: The effects of the compounds on lipid peroxidation were tested in isolated human LDL. Human venous blood was collected into vacutainer tubes containing K3EDTA after a 12-hour fast. Plasma was immediately separated by centrifugation at 3000 g for 25 minutes. LDL was obtained from plasma by ultracentrifugation using a procedure similar to that reported by Chung et al, 1986 using discontinuous KBr gradient. The purity of the freshly isolated LDL was assessed by SDS-PAGE using the procedure of Laemmli, 1970.
The extent of oxidation was measured for the LDL in the absence and presence of the drugs over a range of concentrations. Malondialdehyde (MDA), a product of lipid oxidation, was measured by the reaction of this aldehyde with thiobarbituric acid in an acid medium to form a stable chromogen, referred to as thiobarbituric-acid-reactive-substances (TBARS). Purified LDL (100 μg protein/ml) was incubated for 30 minutes with either vehicle or an NSAID at various concentrations followed by addition of 50 μM CuSO4 at 37° C. Conjugated diene formation was measured by continuously monitoring the change in absorbance at 234 nm on a Beckman DU 640 spectrophotometer, as described by Esterbauer et al., 1985. Stock solutions were tested for iron contamination, which can contribute independently to lipid peroxidation and assay artifacts.

[7] = 24 Hour, carotenoid 1 μM, control 218 ± 20
[8] = 24 Hour, carotenoid 10 μM, control 218 ± 20
[9] = 48 Hour, carotenoid 1 μM, control 572 ± 76
[10] = 48 Hour, carotenoid 10 μM, control 572 ± 76

Compound	% increase (+) or decrease (−) of lipid peroxide levels compared to control ([2]; 24 Hour, carotenoid 1 μM)	Lipid Peroxide Levels [2, 7] [µM]	% increase (+) or decrease (−) of lipid peroxide levels compared to control ([2]; 24 Hour, carotenoid 10 μM)	Lipid Peroxide Levels [2, 8] [µM]	% increase (+) or decrease (−) of lipid peroxide levels compared to control ([2]; 48 Hour, carotenoid 1 μM)	Lipid Peroxide Levels [2, 9] [µM]	% increase (+) or decrease (−) of lipid peroxide levels compared to control ([2]; 48 Hour, carotenoid 10 μM)	Lipid Peroxide Levels [2, 10] [µM]	also measured
3,3′-Diphosphoryloxy-β,ε-carotene sodium salt [Lutein Diphosphate Sodium Salt]	–	–	–	–	–	–	–	–	Mean (% inhibition) of superoxide anion signal ([1]; 40% EtOH, 0.1 mM): 18%; Mean (% inhibition) of superoxide anion signal ([1]; Water, 0.1 mM, listed as disodium diphosphate derivative of natural source lutein, sodium salt): 0%; Mean (% inhibition) of superoxide anion signal ([1]; Water, 0.1 mM, sodium salt): no inhibition; Mean (% inhibition) of superoxide anion signal ([1]; Water, 1.0 mM): 9.3%; Mean (% inhibition) of superoxide anion signal ([1]; Water, 3.0 mM): 72.3%; Mean (% inhibition) of superoxide anion signal ([1]; Water, 5.0 mM, listed as disodium diphosphate derivative of natural source lutein, sodium salt): more than 90%; Mean (% inhibition) of superoxide anion signal ([1]; Water, 5.0 mM, sodium salt): 91.0%
CC1=CC(O)CC(C)(C)C1/C=C/C(C)=C/C=C/C(C)=C/C=C/C=C(C)/C=C/C=C(C)/C=C/C1=C(C)CC(O)CC1(C)C (stereo not drawn) [Lutein, β,ε-carotene-3,3′-diol]	+15.6%^a	252 ± 11	+0.9%^a	220 ± 8	+13.5%^a	649 ± 73	+17.7%^a	673 ± 69	–
CC(C)=CCC/C(C)=C/C=C/C(C)=C/C=C/C(C)=C/C=C/C=C(C)/C=C/C=C(C)/C=C/C=C(\C)CCC=C(C)C [Lycopene]	+9.6%^a	239 ± 2	+85.8%^a	405 ± 32	+13.1%^a	647 ± 61	+119.1%^a	1253 ± 55	antioxidant/prooxidant activity [3]: highest prooxidant activity
CC1=C(/C=C/C(C)=C/C=C/C(C)=C/C=C/C=C(C)/C=C/C=C(C)/C=C/C2=C(C)C[C@@H](O)CC2(C)C)C(C)(C)C[C@H](O)C1 [Zeaxanthin]	+10.6%^a	241 ± 12	−0.5%^a	217 ± 7	+5.8%^a	605 ± 26	+20.6%^a	690 ± 24	–
Cc1ccc(-c2cc(C(F)(F)F)nn2-c2ccc(S(N)(=O)=O)cc2)cc1 [celecoxib]	–	–	–	–	–	–	–	–	effect on peroxidation of arachidonic acid-enriched vesicles ([4]; even at higher concentrations (data not shown)): no significant effect; ORAC value (AUC) [5]: 28.5±0.1; maximum plasma concentration (Cmax) ([6]; approved 200 mg dose): 705 ng/mL; volume of distribution ([6]; in vivo): 400 L; Cmax ([6]; read-out: maximum plasma concentration (Cmax), approved 200 mg dose): 1850 nM
CS(C)(=O)=O [dimethyl sulfone]	–	–	–	–	–	–	–	–	MDA level in LDL samples (human LDL): 3.32 ± 0.19 µM
Cc1ccc(-c2ncc(Cl)cc2-c2ccc(S(C)(=O)=O)cc2)cn1 [etoricoxib]	–	–	–	–	–	–	–	–	Levels of isoprostanes ([4]; 100 nM, vehicle 140±25 ng/100 μl, mean ± S.D.): 224±22 ng/100 μl; effect on MDA levels (TBARS) in human LDL (human LDL): marked increases
CS(=O)(=O)c1ccccc1 [methyl phenyl sulfone]	–	–	–	–	–	–	–	–	MDA level in LDL samples (human LDL): 3.25 ± 0.13 µM
CC1=C(/C=C/C(C)=C/C=C/C(C)=C/C=C/C=C(C)/C=C/C=C(C)/C=C/C2=C(C)CCCC2(C)C)C(C)(C)CCC1 [β-Carotene]	+24.8%^a	272 ± 10	+69.3%^a	369 ± 17	+40.4%^a	803 ± 99	+86.7%^a	1068 ± 82	antioxidant/prooxidant activity [3]: prooxidant activity

— patent US20080293679A1, “Use of carotenoids and/or carotenoid derivatives/analogs for reduction/inhibition of certain negative effects of COX inhibitors” (priority 2005, published 2008)
